Non-standard residues stand in square brackets, D forms with d. Residues, ends and D or L forms follow the SMILES beside them. N(1-naphthylmethyl)Gly = O=C(O)CNCc1cccc2ccccc12; N(4-MeBn)Gly = Cc1ccc(CNCC(=O)O)cc1; NBuGly = CCCCNCC(=O)O; Nlys = NCCCCNCC(=O)O
Experiments:
[1] = system: Staphylococcus pseudintermedius; format: cell-based; conditions: irrespective of the strain being MSSP or MRSP; Mueller-Hinton broth, 35 °C, 16–20 h
Method: Assays were performed by microbroth dilution of test compounds in Mueller-Hinton broth (MHB) in microtiter plates (Corning 96-well clear polypropylene round bottom plates, non-treated) according to the Clinical and Laboratory Standard Institute guidelines. The compounds were tested in concentrations ranging from 1 to 64 μg/mL (1, 2, 4, 8, 16, 32, 64 μg/mL). Briefly, bacteria were streaked on blood agar plates and incubated overnight at 37 °C. From these plates, colonies were suspended in saline solution and adjusted by nephelometer to obtain turbidity equivalent to a 0.5 McFarland standard. The suspension was diluted 1:100 in sterile 0.9% (w/v) saline, and 50 μL of this suspension was transferred to each well of the microtiter plate containing 50 μL of peptide solution in water, resulting in a concentration of 5 × 10^5 CFU/well. The microtiter plate was sealed and incubated at 35 °C for 16–20 h. Results were read by visual inspection.

human red blood cells = format: cell-based; conditions: 37 °C, 1 h
Method: EC10 and EC50 values represent concentrations that result in 10 and 50% hemolysis, respectively. […] Briefly, two-fold serial dilutions (1 to 256 μg/mL) were incubated in PBS with a suspension of freshly withdrawn human red blood cells in PBS in 96-well v-shaped microtiter plates at 37 °C for 1 h covered with Microseal foil to avoid evaporation, and transferred to 96-well flat bottomed microtiter plates. The release of hemoglobin was detected by measuring the absorbance at 414 nm by a UV spectrophotometer (VERSAmax™ Tunable Microplate Reader, Molecular Devices, San José, CA, USA). PBS and melittin were used as negative and positive controls, respectively. All human blood samples were obtained after informed consent of the voluntary donors upon understanding of the research purposes, within local hospitals and according to local guidelines.

in vitro [2] = format: cell-based; conditions: dog
Excerpt: B1 and D2 were designed on the basis that the majority of antimicrobial peptides are cationic and hydrophobic. We envisaged that short linear peptide-peptoid hybrids consisting of cationic lysines and hydrophobic peptoid residues would result in derivatives with potent antibacterial activity and low cytotoxicity. […] Repeated experiments on different days with different human blood samples confirmed the results.

trypsin = target: T1, trypsin (Bos taurus, UniProt P00760); assay: Stability to proteases: trypsin
T1 sequence (P00760 24-246): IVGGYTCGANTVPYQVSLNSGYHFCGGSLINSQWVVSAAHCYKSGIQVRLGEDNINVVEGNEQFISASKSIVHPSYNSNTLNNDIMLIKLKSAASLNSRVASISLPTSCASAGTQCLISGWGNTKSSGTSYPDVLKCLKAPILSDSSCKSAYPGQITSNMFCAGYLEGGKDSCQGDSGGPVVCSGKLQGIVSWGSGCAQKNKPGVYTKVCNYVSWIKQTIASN
Method: Solutions, concentrations, and reaction temperatures were selected according to manufacturer’s recommendations for total peptide digestion. A stock solution of 1 mM trypsin was prepared in 1 mM Tris HCl buffer solution containing 20 mM Ca^2+. […] […] Chymotrypsin was solubilized at 10 mg/mL in 1 mM HCl solution containing 2 mM CaCl2. […] Chymotrypsin reaction was conducted in 100 mM Tris HCl containing 10 mM CaCl2, pH 7.8 at 30 °C. […] At time 0, 3, and 6 h, 50 µL aliquots were removed for RP-HPLC analysis (see supplementary Materials, Section S3).

α-chymotrypsin = α-chymotrypsin (Bos taurus, UniProt P00766)
Method: Solutions, concentrations, and reaction temperatures were selected according to manufacturer’s recommendations for total peptide digestion. A stock solution of 1 mM trypsin was prepared in 1 mM Tris HCl buffer solution containing 20 mM Ca^2+. […] Reaction was conducted at 37 °C for 6 h. Chymotrypsin was solubilized at 10 mg/mL in 1 mM HCl solution containing 2 mM CaCl2. […] Chymotrypsin reaction was conducted in 100 mM Tris HCl containing 10 mM CaCl2, pH 7.8 at 30 °C. […] At time 0, 3, and 6 h, 50 µL aliquots were removed for RP-HPLC analysis (see supplementary Materials, Section S3).

in vitro [3] = conditions: Beagle, dog
Method: Plasma stability was determined by incubation of a known concentration of the peptoid/hybrid of interest with dog plasma up to 60 min at 37 °C and analyzing the concentration of the peptide in the supernatant by LC-MS/MS after protein precipitation. Results are presented as average of triplicates from a single donor.
Dog plasma was collected from a single Beagle dog at the research facilities of Zoetis Animal Health (Kalamazoo, MI, USA) and frozen immediately until use. […] Test compounds were added to plasma diluted 1:1 with PBS buffer pH 7.4 and preheated for 5 min at 37 °C. Samples were removed at 0, 5, 10, 20, 30, and 60 min. The reaction was stopped by protein precipitation by adding a 9:1 (v/v) ACN:MeOH mixture followed by centrifugation at 10,000 rpm for 5 min, and the remaining amount of intact test compounds in the supernatant was quantified via API Sciex 4000Q LC-MS/MS (Framingham, MA, USA) (coupled with an HPLC column to filter off the plasma proteins—see Supplementary Materials, Section S6) upon completion of the assay. Experiments were performed in quadruplicate.

in vitro [4] = conditions: liver microsomes
Excerpt: Liver microsomal assay is used to determine hepatic intrinsic clearance of a drug and identification and profile of metabolites across species. Evaluation of microsomal stability of compounds in different species is common procedure in the drug discovery process to evaluate different metabolites in case of instability.
Dog and human microsomes were obtained from XenoTech LLC (Kansas City, KS, USA) and reconstituted in buffer containing D-(L)-isocitrate trisodium salt and 10 U/mL isocitrate dehydrogenase type IV glycerol solution (procine). […] The reaction was initiated by adding NADPH and substrate to reconstituted microsomes. A final concentration of 1 µM substrate was incubated with 0.5 mg/mL microsomes in the presence of 1 mM NADP^+ in 100 mM PBS with 1 mM MgCl2. Samples were collected at 0, 5, 10, 20, 30, and 60 min. The reaction was conducted at 37 °C before termination by addition of ACN, and analysis was conducted by LC-MS/MS (similar to the method described above). Controls with no drug and with no microsome regeneration system (buffer only) were included. All samples were prepared in triplicate. The rate of degradation by metabolism was measured on the basis of the difference of substrate concentration remaining at every time point. Metabolic half-lives were calculated as mentioned above.

[5] = Plasma protein binding, rapid equilibrium dialysis; format: in vitro ADME, dog; conditions: Beagle, dog; for recovery at 4 h, 30.8 µM: pH 7.4, % Average Recovery; for fraction unbound at 4 h, 30.8 µM: plasma
Method: (§1) The plasma protein binding properties of candidate drugs can influence their efficacy, safety, and distribution. The fraction of peptoid bound to proteins of plasma collected from dogs was determined using rapid equilibrium dialysis.
(§2) Plate inserts comprised two side-by-side chambers separated by a dialysis membrane (8K MWCO). The chambers contained […] plasma or 350 µL dialysis buffer (PBS buffer pH 7.4), respectively. Dogplasma lot was identical to the one used in the plasma stability assay. […] Plates were sealed and incubated at 37 °C for 4 h on a shaker. Each test was run in quadruplicate in dog plasma. Upon completion of the assay, the plasma protein binding was determined by protein precipitation with ACN of both plasma and PBS, and drug levels were quantified via LC-MS/MS as described above. The percentage of bound compounds was determined from peak areas using Equations (3) and (4):% free = (concentration buffer chamber/concentration plasma chamber) × 100%(3) % bound = 100% − % free(4)

dog plasma proteins [6] = assay: Plasma protein binding, rapid equilibrium dialysis; format: in vitro ADME
Method: as §1, §2

[7] = UV-UPLC detection limit 1 µg/L
Method: The experiment was repeated twice.
The experiment was conducted in duplicate.

[8] = Day 0 versus Day 1, UV-UPLC
Method: 5-60% ACN in 2 minutes, 0.1% Formic Acid
(Waters Acquity UV-UPLC, C18 column, 2.1x54 mm, T=60°C, equilibration time= 0.1 min)
Table S4 Final gradient elution UV-UPLC method used for the LC-MS/MS experiments. %A and %B indicate the
percentage of the mobile phases mixed at the given time. […]

pronase [9] = assay: in vitro; conditions: pronase from Streptomyces griseus, pH 8
[10] = In vitro drug release from formulations, Franz cell with cellulose membrane; format: physicochemical
Method: Release was evaluated as function of the amount of peptide diffused through a cellulose membrane in the receptor of a Franz cell and detected via RP-HPLC from 0 to 8 h.
An oil-in-water cream and an ointment were prepared as described by Danish Health and Medicines Authority. For the oil-in-water cream, ingredients of the oil phase (Table 3) were melted on a water bath at 70 °C and mixed with the water phase, which was previously brought to boil and cooled down to 65–70 °C. The mixture was stirred until cooled. The ointment formulation was prepared by mixing melted Vaseline (80%) with paraffin oil (20%) on a water bath and allowed to cool under stirring. The cold method was used for preparation of the 20% (w/w) poloxamer gel, where the poloxamer powder was dissolved in purified water at 4 °C and subsequently left overnight at 2–8 °C to stabilize. All formulations were stored at 4 °C for maximum seven days before use. […] For the hydrogel, the compounds dissolved in water were mixed with the cold poloxamer solution before gelling at room temperature.
Approximately 200 µL of each formulation was filled into the donor chambers of the Franz cells via a 1 mL syringe ensuring contact with the cellulose membrane separating the donor compartment from the receptor compartment. The donor compartment was maintained at room temperature (25 ± 1 °C) and the membrane diffusion area was 1.57 cm^2. […] The receptor medium (3 mL PBS, pH 7.4) was stirred using magnetic stirring and thermo-regulated to 36 °C by a water jacket. Samples (200 μL) were collected from the receptor compartment through the sampling port over 8 h, and the withdrawn volume was replaced with an equal volume of buffer at every time point. The samples were analyzed by a Waters 600E RP-HPLC equipped with Empower 3 software (Waters Corporation, Milford, MA, USA): 30 min run time with 20 min linear gradient from 0.1% (v/v) TFA in water to 30% (v/v) ACN:H2O with 0.1% (v/v) TFA (90:10). […] Experiments were performed in duplicate.

pronase [11] = conditions: 37 °C, RP-HPLC peak areas
dog plasma proteins [12] = conditions: stated in the method for the control; no reference given; cited from earlier work
[13] = pH 7.4, % Unbound (free fraction)
[14] = Beagle, dog, 4 h, 30.8 µM, pH 7.4
[15] = dog plasma, 4 h incubation, 37 °C

CCCCN(CC(=O)N[C@@H](CCCCN)C(=O)N(CC(=O)N(CC(=O)N(CC(N)=O)Cc1cccc2ccccc12)Cc1ccc(C)cc1)Cc1cccc2ccccc12)C(=O)[C@H](CCCCN)NC(=O)[C@@H](N)CCCCN [Compound B1] (H-KK[NBuGly]K[N(1-naphthylmethyl)Gly][N(4-MeBn)Gly][N(1-naphthylmethyl)Gly]-NH2)
Minimum inhibitory concentration (MIC) [1]: 2 to 4 mg/L
EC50, concentration resulting in 50% hemolysis of erythrocytes (human red blood cells): 219 mg/L
hemolysis at 150 µM (in vitro [2]): 45%
metabolised at 24 h, 1 mg/mL (trypsin; isolated enzyme trypsin): 6%
degradation after α-chymotrypsin exposure (α-chymotrypsin): no degradation
half-life (in vitro [3]; dog plasma diluted 1:1 with PBS, pH 7.4, Half-life in plasma (dog), dog plasma, 37 °C, incubation up to 60 min, LC-MS/MS): ~0.5 h
half-life (in vitro [3]; dog plasma diluted 1:1 with PBS, pH 7.4, stability to plasma proteases (half-life), in hours): 0.5 h
half-life at 1 µM (in vitro [4]; dog): > 2 h
half-life at 1 µM (in vitro [4]; human): > 2 h
remaining at 1 h, 1 µM (in vitro [4]): 100%
recovery at 4 h, 30.8 µM [5]: > 70%
fraction unbound at 4 h, 30.8 µM [5, 13]: 0.0016
% Average Recovery (dog plasma proteins [6]; [14]): 75.6%
skin penetration from 50% transcutol formulation after 24 h [7]: No penetration
stability in 50% transcutol in acetate buffer pH 5 [8]: stable
metabolised at 24 h, 0.2 µM (pronase [9]): 38%

CCCCN(CC(N)=O)C(=O)CN(CCCCN)C(=O)CN(Cc1cccc2ccccc12)C(=O)CN(CCCCN)C(=O)CN(Cc1ccc(C)cc1)C(=O)CN(Cc1cccc2ccccc12)C(=O)CN(CCCCN)C(=O)CNCCCCN [Compound D2] (H-[Nlys][Nlys][N(1-naphthylmethyl)Gly][N(4-MeBn)Gly][Nlys][N(1-naphthylmethyl)Gly][Nlys][NBuGly]-NH2)
Minimum inhibitory concentration (MIC) [1]: 2 to 4 mg/L
hemolysis at 150 µM (in vitro [2]): 22%
degradation after 24 h of incubation with trypsin (trypsin): no degradation
degradation after α-chymotrypsin exposure (α-chymotrypsin): no degradation
half-life (in vitro [3]; plasma, pH 7.4, Half-life in plasma (dog), dog plasma, 37 °C, incubation up to 60 min, LC-MS/MS): > 2 h
half-life (in vitro [4]; dog): > 2 h
half-life (in vitro [4]; human): > 2 h
remaining at 1 h, 1 µM (in vitro [4]): 77%
recovery at 4 h, 30.8 µM [5]: > 70%
fraction unbound at 4 h, 30.8 µM [5, 13]: 0.0143
fraction unbound at 4 h, 30.8 µM ([5]; pH 7.4, Bound to plasma proteins): < 0.02
% Average Recovery (dog plasma proteins [6]; [14]): 70.8%
Bound to plasma proteins (dog plasma proteins [6]; Beagle, dog, plasma, 4 h, 30.8 µM, pH 7.4): 98.6%
release from 20% poloxamer gel after eight hours ([10]; 20% poloxamer gel, 8 h): no detectable release
release kinetics from oil-in-water cream ([10]; oil-in-water cream): zero-order kinetics
release from ointment after eight hours ([10]; ointment, 8 h): no detectable release
degradation after 24 h incubation with pronase (pronase [11]): shows stability
metabolised at 24 h, 0.2 µM (pronase [9]): 0.2%

CS(=O)(=O)CC(=O)N1CC2(C1)OCc1cc(C3=NO[C@@](c4cc(Cl)c(F)c(Cl)c4)(C(F)(F)F)C3)ccc12 [Control, sarolaner, reference compound]
% Unbound (free fraction) (dog plasma proteins [6]; [15]): 0.27%
Bound to plasma proteins (dog plasma proteins [6]; [15]): 99.7%
% Average Recovery (dog plasma proteins [6]; dog plasma, 4 h incubation, n = 4): 67.1%
protein bound (known value of the control compound) (dog plasma proteins [12]): > 99%
